# According to ChEMBL document CHEMBL1143055, “2,3,5-Substituted tetrahydrofurans as cancer chemopreventives. Part 1: synthesis and anti-cancer activities of 5-hydroxymethyl-2,3-diaryl-tetrahydro-furan-3-ols” (2007):
# Columns and labels:
# UACC-257 = experiment: Antitumor activity against human UACC257 cells; type: functional
# A498 = experiment: Antitumor activity against human A498 cells; type: functional
# RXF 393 = experiment: Antitumor activity against human RXF393 cells; type: functional
# [1] = Antitumor activity against human HS 578T cells; type: functional
# NCI-H23 = experiment: Antitumor activity against human NCI-H23 cells; type: functional
# LOX IMVI = experiment: Antitumor activity against human LOX IMVI cells; type: functional
# SK-MEL-28 = experiment: Antitumor activity against human SK-MEL-28 cells; type: functional
# SF-295 = experiment: Antitumor activity against human SF295 cells; type: functional
# KM12 = experiment: Antitumor activity against human KM12 cells; type: functional
# NCI-H460 = experiment: Antitumor activity against human NCI-H460 cells; type: functional
# U-251 = experiment: Antitumor activity against human U251 cells; type: functional
# MCF7 = experiment: Antitumor activity against human MCF7 cells; type: functional
# OVCAR-3 = experiment: Antitumor activity against human OVCAR-3 cells; type: functional
# ACHN = experiment: Antitumor activity against human ACHN cells; type: functional
# TK-10 = experiment: Antitumor activity against human TK10 cells; type: functional
# HOP-92 = experiment: Antitumor activity against human HOP92 cells; type: functional
# A549 = experiment: Antitumor activity against human A549 cells; type: functional
# SF-539 = experiment: Antitumor activity against human SF539 cells; type: functional
# HT-29 = experiment: Antitumor activity against human HT29 cells; type: functional
# SNB-19 = experiment: Antitumor activity against human SNB19 cells; type: functional
# BT-549 = experiment: Antitumor activity against human BT549 cells; type: functional
# PC-3 = experiment: Antitumor activity against human PC3 cells; type: functional
# NCI-H522 = experiment: Antitumor activity against human NCI-H522 cells; type: functional
# DU-145 = experiment: Antitumor activity against human DU145 cells; type: functional
# EKVX = experiment: Antitumor activity against human EKVX cells; type: functional
# RPMI-8226 = experiment: Antitumor activity against human RPMI8226 cells; type: functional
# [2] = Antitumor activity against human […] cells; type: functional
# HCT-15 = experiment: Antitumor activity against human HCT15 cells; type: functional
# NCI-H226 = experiment: Antitumor activity against human NCI-H226 cells; type: functional
# CAKI-1 = experiment: Antitumor activity against human CAKI-1 cells; type: functional
# Malme-3M = experiment: Antitumor activity against human MALME-3M cells; type: functional
# MOLT-4 = experiment: Antitumor activity against human MOLT4 cells; type: functional
# OVCAR-8 = experiment: Antitumor activity against human OVCAR8 cells; type: functional
# SK-OV-3 = experiment: Antitumor activity against human SK-OV-3 cells; type: functional
# CCRF-CEM [3] = experiment: Antitumor activity against human CCRF-CEM cells; type: functional
# IGROV-1 = experiment: Antitumor activity against human IGROV1 cells; type: functional
# 786-0 = experiment: Antitumor activity against human 786-0 cells; type: functional
# HOP-62 = experiment: Antitumor activity against human HOP62 cells; type: functional
# OVCAR-5 = experiment: Antitumor activity against human OVCAR5 cells; type: functional
# SR [4] = experiment: Antitumor activity against human SR cells; type: functional
# HCC 2998 = experiment: Antitumor activity against human HCC2998 cells; type: functional
# UO-31 = experiment: Antitumor activity against human UO31 cells; type: functional
# NCI/ADR-RES = experiment: Antitumor activity against human NCI/ADR-RES cells; type: functional
# SW-620 = experiment: Antitumor activity against human SW620 cells; type: functional
# SF-268 = experiment: Antitumor activity against human SF268 cells; type: functional
# SNB-75 = experiment: Antitumor activity against human SNB75 cells; type: functional
# [5] = Antitumor activity against human NCI-H322 cells; type: functional
# [6] = Antitumor activity against human HL60 (TB) cells; type: functional, HL-60(TB); details: HL-60
# COLO 205 = experiment: Antitumor activity against human COLO205 cells; type: functional
# UACC-62 = experiment: Antitumor activity against human UACC62 cells; type: functional
# SK-MEL-5 = experiment: Antitumor activity against human SK-MEL-5 cells; type: functional
# HCT-116 = experiment: Antitumor activity against human HCT116 cells; type: functional
# OVCAR-4 = experiment: Antitumor activity against human OVCAR4 cells; type: functional
# K562 = experiment: Antitumor activity against human K562 cells; type: functional
# SN12C = experiment: Antitumor activity against human SN12C cells; type: functional
# MDA-MB-435 = experiment: Antitumor activity against human MDA-MB-435 cells; type: functional
# SR [7] = experiment: Growth inhibition of human SR cells at 1 uM; type: functional
# CCRF-CEM [8] = experiment: Growth inhibition of huam CCRF-CEM at 1 uM; type: functional; details: Homo sapiens
# [9] = Growth inhibition of human HS 578T cells at 10 nM; type: functional
smiles,measurement,setting,value
O=c1[nH]cc(F)c(=O)[nH]1 [FLUOROURACIL],GI50,UACC-257,100 µM
same,GI50,A498,10 µM
same,GI50,RXF 393,50.1 µM
same,GI50,[1],251 µM
same,GI50,NCI-H23,12.6 µM
same,GI50,LOX IMVI,6.31 µM
same,GI50,SK-MEL-28,50.1 µM
same,GI50,SF-295,50.1 µM
same,GI50,KM12,10 µM
same,GI50,NCI-H460,1 µM
same,GI50,U-251,39.8 µM
same,GI50,MCF7,1.58 µM
same,GI50,OVCAR-3,25.1 µM
same,GI50,ACHN,10 µM
same,GI50,TK-10,126 µM
same,GI50,HOP-92,158 µM
same,GI50,A549,2 µM
same,GI50,SF-539,1.26 µM
same,GI50,HT-29,6.31 µM
same,GI50,SNB-19,126 µM
same,GI50,BT-549,100 µM
same,GI50,PC-3,50.1 µM
same,GI50,NCI-H522,39.8 µM
same,GI50,DU-145,10 µM
same,GI50,EKVX,316 µM
same,GI50,RPMI-8226,5.01 µM
same,GI50,[2],501 µM
same,GI50,HCT-15,6.31 µM
same,GI50,NCI-H226,251 µM
same,GI50,CAKI-1,3.98 µM
same,GI50,Malme-3M,20 µM
same,GI50,MOLT-4,12.6 µM
same,GI50,OVCAR-8,20 µM
same,GI50,SK-OV-3,158 µM
same,GI50,CCRF-CEM [3],31.6 µM
same,GI50,IGROV-1,12.6 µM
same,GI50,786-0,12.6 µM
same,GI50,HOP-62,20 µM
same,GI50,OVCAR-5,158 µM
same,GI50,SR [4],3.98 µM
same,GI50,HCC 2998,1.58 µM
same,GI50,UO-31,5.01 µM
same,GI50,NCI/ADR-RES,39.8 µM
same,GI50,SW-620,25.1 µM
same,GI50,SF-268,50.1 µM
same,GI50,SNB-75,200 µM
same,GI50,[5],20 µM
same,GI50,[6],20 µM
same,GI50,COLO 205,6.31 µM
same,GI50,UACC-62,12.6 µM
same,GI50,SK-MEL-5,12.6 µM
same,GI50,HCT-116,0.398 µM
same,GI50,OVCAR-4,63.1 µM
same,GI50,K562,20 µM
same,GI50,SN12C,25.1 µM
same,GI50,MDA-MB-435,10 µM
OC[C@H]1C[C@](O)(c2ccc(Cl)cc2)[C@@H](c2ccc(Cl)cc2)O1 (relative stereo),GI50,UACC-257,21.4 µM
same,GI50,A498,24.5 µM
same,GI50,RXF 393,20.9 µM
same,GI50,[1],18.2 µM
same,GI50,NCI-H23,24.5 µM
same,GI50,LOX IMVI,17.8 µM
same,GI50,SK-MEL-28,28.8 µM
same,inhibition at 1 µM,SR [7],87%
same,GI50,SF-295,30.2 µM
same,GI50,KM12,20.4 µM
same,GI50,NCI-H460,20 µM
same,GI50,U-251,24.5 µM
same,GI50,MCF7,30.2 µM
same,GI50,OVCAR-3,26.3 µM
same,GI50,ACHN,28.2 µM
same,GI50,TK-10,30.2 µM
same,GI50,HOP-92,17 µM
same,GI50,A549,29.5 µM
same,GI50,SF-539,23.4 µM
same,GI50,HT-29,24 µM
same,GI50,SNB-19,38 µM
same,GI50,BT-549,16.6 µM
same,GI50,PC-3,20 µM
same,GI50,NCI-H522,26.3 µM
same,GI50,DU-145,21.9 µM
same,GI50,EKVX,18.2 µM
same,GI50,RPMI-8226,13.8 µM
same,GI50,[2],19.5 µM
same,GI50,HCT-15,31.6 µM
same,GI50,NCI-H226,26.3 µM
same,GI50,CAKI-1,26.9 µM
same,GI50,Malme-3M,21.4 µM
same,GI50,MOLT-4,17.8 µM
same,inhibition at 1 µM,CCRF-CEM [8],71%
same,GI50,OVCAR-8,30.9 µM
same,GI50,SK-OV-3,39.8 µM
same,GI50,CCRF-CEM [3],0.468 µM
same,GI50,786-0,22.4 µM
same,inhibition at 0.01 µM,[9],21%
same,GI50,HOP-62,20.9 µM
same,GI50,OVCAR-5,25.7 µM
same,GI50,SR [4],20.4 µM
same,GI50,HCC 2998,24 µM
same,GI50,UO-31,19.5 µM
same,GI50,NCI/ADR-RES,30.2 µM
same,GI50,SW-620,27.5 µM
same,GI50,SF-268,26.9 µM
same,GI50,SNB-75,22.9 µM
same,GI50,[5],35.5 µM
same,GI50,[6],17.4 µM
same,GI50,COLO 205,25.7 µM
same,GI50,UACC-62,15.8 µM
same,GI50,SK-MEL-5,15.1 µM
same,GI50,HCT-116,17.4 µM
same,GI50,OVCAR-4,32.4 µM
same,GI50,K562,25.1 µM
same,GI50,SN12C,17 µM
same,GI50,MDA-MB-435,22.9 µM
